The values that follow come from patent publication US20160102074A1, “SUBSTITUTED AMIDE COMPOUNDS” (PFIZER INC., priority 2014, published 2016).

The experiment relates to human PCSK9. Briefly: PCSK9 AlphaLISA assay, PCSK9 lowering in WT7 cells. The conditions noted are these: WT7 cells (Huh7 stably over-expressing human PCSK9), secreted PCSK9 by AlphaLISA, overnight incubation (16-24 h), top concentration 20 μM; read-out: Cell Based PCSK9 IC50. The text has this:
PCSK9 Lowering in WT7 Cells
An in-vitro AlphaLISA assay (Perkin Elmer) was developed in order to quantitate the level of PCSK9 secreted into the cell culture media following compound treatment. To detect and measure PCSK9 protein a mouse monoclonal anti-human PCSK9 antibody was coupled to AlphaLISA acceptor beads by an external vendor (Perkin Elmer) and a second rabbit monoclonal anti-human PCSK9 antibody with an epitope distinct from that of the acceptor beads was biotinylated using the EZ link NHS-LC-LC-Biotin kit (Life Technologies #21338). Streptavidin coated-donor beads (Perkin Elmer) are also included in the assay mixture which then binds the biotinylated anti-PCSK9 antibody and in the presence of PCSK9 this donor complex and acceptor beads are brought into close proximity. Upon excitation of the donor beads at 680 nm singlet oxygen molecules are released that trigger an energy transfer cascade within the acceptor beads resolving as a single peak of light emitted at 615 nm. The ability of compound to modulate PCSK9 protein levels in conditioned media by AlphaLISA was assessed in the human hepatocellular carcinoma cell line Huh7, stably over-expressing human PCSK9. This cell line, termed WT7, was established by transfecting Huh7 cells with an in-house modified pcDNA 3.1 (+) Zeo expression vector (Life Technologies) containing the full-length human PCSK9 sequence (NCBI reference identifier, NM_174936.3, where coding sequence start annotated at position 363) and a c-terminal V5 and 6×-His tag. Following plasmid transfection the stable WT7 clone was identified and maintained under Zeocin selection. Compound screening was performed in 384-well plates where WT7 cells were plated at a density of 7500 cells per well in 20 μL of tissue culture media containing compound in an eleven point, 0.5 log dilution format at a high treatment concentration of 20 μM in a final volume of 0.5% DMSO. In additional to these test compound conditions each screening plate also included wells that contained 20 μM puromycin as a positive assay control defined as high percent effect, HPE, as well as wells containing media in 0.5% DMSO as a negative treatment control defined as zero percent effect, ZPE. After overnight compound incubation (16-24 h) the tissue culture media was collected and an aliquot from each sample was transferred to individual wells of a 384-well white Optiplate (Perkin Elmer). The coupled antibodies and donor beads were added to the assay plates in a buffer composed of 30 mM Tris pH 7.4, 0.02% Tween-20 and 0.02% Casein. Anti-PCSK9 acceptor beads (final concentration of 10 μg/mL) and anti-PCSK9 biotinylated antibody (final concentration of 3 nM) were added and incubated for 30 minutes at room temperature followed by the addition of the streptavidin donor beads (final concentration 40 μg/mL) for an additional 60 minutes. Additionally a standard curve was generated where AlphaLISA reagents were incubated in wells spiked with recombinant human PCSK9 diluted in tissue culture media from 5000 ng/mL to 0.6 ng/mL. Following incubation with AlphaLISA reagents plates were read on an EnVision (Perkin Elmer) plate reader at an excitation wavelength of […] and emission/detection wavelength of […]. To determine compound IC50 the data for HPEand ZPEcontrol wells were first analyzed and the mean, standard deviation and Z prime calculated for each plate. The test compound data were converted into percent effect, using the ZPE and HPE controls as 0% and 100% activity, respectively. The equation used for converting each well reading into percent effect was:
IC50 was then calculated and reported as the midpoint in the percent effect curve in molar units and the values are reported under the Cell Based PCSK9 IC50 (μM) column header within Table 2 Biological Data. […]
(Bead proximity is the source of the signal in Alpha formats.)
As usually defined, the IC50 is the concentration needed to halve the response being measured. Consider `Cn1ncc(-c2ccc(C(=O)N(c3ncccc3Cl)[C@@H]3CCCNC3)cc2F)c1-c1nn[nH]n1` [Example 3, N-(3-chloropyridin-2-yl)-3-fluoro-4-[1-methyl-5-(2H-tetrazol-5-yl)-1H-pyrazol-4-yl]-N-[(3R)-piperidin-3-yl]benzamide], for which the half-inhibitory concentration (IC50) was above 20 µM.

For `CCOC(=O)O[C@@H](C)n1nnnc1-c1c(-c2ccc(C(=O)N(c3ncccc3C)[C@@H]3CCCNC3)cc2)cnn1C` [Example 5a, ethyl (S)-1-{5-[1-methyl-4-(4-{(3-methylpyridin-2-yl)[(3R)-piperidin-3-yl]carbamoyl}phenyl)-1H-pyrazol-5-yl]-1H-tetrazol-1-yl}ethyl carbonate], the concentration for half-maximal inhibition (IC50) was above 20 µM. The same measure for `CCOC(=O)O[C@H](C)n1nnnc1-c1c(-c2ccc(C(=O)N(c3ncccc3C)[C@@H]3CCCNC3)cc2)cnn1C` [Example 5b, ethyl (R)-1-{5-[1-methyl-4-(4-{(3-methylpyridin-2-yl)[(3R)-piperidin-3-yl]carbamoyl}phenyl)-1H-pyrazol-5-yl]-1H-tetrazol-1-yl}ethyl carbonate]: above 20 µM; for `CCOC(=O)O[C@@H](C)n1nnnc1-c1c(-c2ccc(C(=O)N(c3ncccc3Cl)[C@@H]3CCCNC3)cc2)cnn1C` [Example 6, ethyl (S)-1-{5-[1-methyl-4-(4-{(3-chloropyridin-2-yl)[(3R)-piperidin-3-yl]carbamoyl}phenyl)-1H-pyrazol-5-yl]-1H-tetrazol-1-yl}ethyl carbonate]: above 20 µM; for `CCOC(=O)O[C@@H](C)n1nnnc1-c1c(-c2ccc(C(=O)N(c3ncccc3Cl)[C@@H]3CCCNC3)cc2F)cnn1C` [Example 7, ethyl (S)-1-{5-[4-(4-{(3-chloropyridin-2-yl)[(3R)-piperidin-3-yl]carbamoyl}-2-fluorophenyl)-1-methyl-1H-pyrazol-5-yl]-1H-tetrazol-1-yl}ethyl carbonate]: above 20 µM. Turning to `CCOC(=O)O[C@@H](C)n1nnnc1-c1c(-c2ccc(C(=O)N(c3ncccc3C)[C@@H]3CCCNC3)cc2F)cnn1C` [Example 8, ethyl (S)-1-{5-[4-(4-{(3-methylpyridin-2-yl)[(3R)-piperidin-3-yl]carbamoyl}-2-fluorophenyl)-1-methyl-1H-pyrazol-5-yl]-1H-tetrazol-1-yl}ethyl carbonate], the IC50 is above 20 µM. The same measure for `CCOC(=O)O[C@@H](C)n1nnnc1-c1c(-c2ccc(C(=O)N(c3ncccc3C)[C@@H]3CCCNC3)nc2)cnn1C` [Example 9, ethyl (S)-1-{5-[1-methyl-4-(6-{(3-methylpyridin-2-yl)[(3R)-piperidin-3-yl]carbamoyl}pyridin-3-yl)-1H-pyrazol-5-yl]-1H-tetrazol-1-yl}ethyl carbonate]: above 20 µM. The figure for `CCOC(=O)O[C@@H](C)n1nnnc1-c1c(-c2ccc(C(=O)N(c3ncccc3Cl)[C@@H]3CCCNC3)nc2)cnn1C` [Example 10, ethyl (S)-1-{5-[4-(6-{(3-chloropyridin-2-yl)[(3R)-piperidin-3-yl]carbamoyl}pyridin-3-yl)-1-methyl-1H-pyrazol-5-yl]-1H-tetrazol-1-yl}ethyl carbonate] is above 20 µM; for `CCOC(=O)O[C@H](C)n1nnnc1-c1c(-c2ccc(C(=O)N(c3ncccc3Cl)[C@@H]3CCCNC3)cc2F)cnn1C` [Example 11, ethyl (R)-1-{5-[4-(4-{(3-chloropyridin-2-yl)[(3R)-piperidin-3-yl]carbamoyl}-2-fluorophenyl)-1-methyl-1H-pyrazol-5-yl]-1H-tetrazol-1-yl}ethyl carbonate] it is 16.1 µM.
